From article PMC6299835 (Toxicon : official journal of the International Society on …, 2018)
No end group written: not given here.

Key:
human MrgprX1 (hMrgprX1) = human MrgprX1 (hMrgprX1) (Homo sapiens, UniProt Q96LB2); assay: cell-based; format: cell-based
[1] = tested on: hMrgprX1;Mrgpr-cluster∆−/− transgenic mouse; details: in vivo

Chain of human MrgprX1 (hMrgprX1) (Q96LB2 whole entry, looked up): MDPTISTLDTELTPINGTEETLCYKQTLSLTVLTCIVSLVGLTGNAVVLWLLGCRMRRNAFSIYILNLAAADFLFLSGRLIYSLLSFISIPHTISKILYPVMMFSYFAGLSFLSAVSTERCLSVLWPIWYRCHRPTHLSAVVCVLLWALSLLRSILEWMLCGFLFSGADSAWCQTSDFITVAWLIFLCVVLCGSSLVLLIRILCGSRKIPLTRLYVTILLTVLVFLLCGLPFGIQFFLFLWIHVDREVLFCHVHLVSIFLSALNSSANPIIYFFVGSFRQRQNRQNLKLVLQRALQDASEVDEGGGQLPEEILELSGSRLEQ

Substance	Activation of hMrgprX1 (human MrgprX1 (hMrgprX1))	Itch-related scratching after intradermal cheek injection of peptide [1]	EC50 (human MrgprX1 (hMrgprX1)) [nM]	Potency in activating hMrgprX1 relative to CNF-Vc1 (human MrgprX1 (hMrgprX1))
WSGPRNRFVRF-NH2 [CNF-Vc1(7–18)]	can activate	–	–	–
HSGILLAWSGPRNRFVRI-NH2 [CNF-Tx2]	activates	induces significant scratching	540	at least threefold more potent
